# Source: PubChem BioAssay AID2060609 (Molecular Pharmacology Branch, DTP, NCI, 2025)
# Values joined by “and” are separate entries in the source; they are usually repeats but may differ in a detail not shown here. Identical values can stand only once.
# System: 855422-203-R-J1-PDC complex spheroids, viability
# Assay: Anticancer human tumor 855422-203-R-J1-PDC patient-derived bladder carcinoma cell line growth inhibition [CLK]
# Settings: for viability, T/C: stronger effect = lower value
# Description: A high-throughput screen of multi-cell type tumor spheroids was designed to identify active combinations of […] and targeted small molecules. Complex spheroids include a stromal component modeled by human endothelial cells (HUVEC) and fibroblasts modeled by human mesenchymal stem cells (MSCs). The concentration ranges selected for each drug and investigational agent were based upon clinically achievable concentrations if the clinical Cmax of the agent was known.
# Compounds. The drugs and investigational agents: cirtuvivint (SM08502; NSC835563), CC-671 (NSC850746), vemurafenib (NSC761431), tapotoclax (NSC804041), sotorasib (NSC818433), adagrasib (NSC831453), MRTX-1133 (NSC836407), BAY2416964 (NSC825713), copanlisib (NSC816437), inavolisib (NSC800729), abemaciclib (NSC768073), osimertinib (NSC779217), entinostat (NSC756642), eltanexor (KPT-8602, NSC794443), venetoclax (NSC766270), ceralasertib (NSC777638), bortezomib (NSC756655), olaparib (NSC753686), talazoparib (NSC767125), alisertib (NSC759677), peposertib (NSC802822), gemcitabine (NSC613327), 5-fluorouracil (NSC19893), SN-38 (NSC673596), oxaliplatin (NSC266046), paclitaxel (NSC125973), and doxorubicin (NSC123127), were obtained from the National Cancer Institute (NCI) Developmental Therapeutics Program Chemical Repository. The FDA-approved anticancer drug set is available from the Developmental Therapeutics Program at https://dtp.cancer.gov/organization/dscb/obtaining/available plates.htm. […] The stock solutions were prepared in dimethyl sulfoxide (DMSO, Sigma-Aldrich, St. Louis, MO, cat. D2650), except for the platinum complexes which were prepared in saline (Quality Biological, Gaithersburg, MD, cat. 114-055-101), at 800-fold the tested concentration and stored at -70 degrees C prior to their use. All drugs and investigational agents were tested over a range starting from a high concentration at or near the clinical Cmax and decreasing in half-log increments. If the clinical Cmax for an agent had not been determined, the highest concentration tested was 10 microM.
# Cell Culture. All cells were maintained in an incubator at 37 degrees C and 5% CO2 with 95% humidity. The PDC lines were cultured according to standard operating procedures established by the NCI PDMR. Briefly, all PDCs were thawed and cultured in Matrigel-coated flasks prepared with a working solution of 1X Ham's F-12 nutrient mix, without supplementation (Invitrogen, Waltham, MA, cat. 11765054), 100 U/mL penicillin-streptomycin (Invitrogen, cat. 15140122), and 2.5% Matrigel (Corning Inc., Corning, NY, cat. 354248) for the first three passages. The 947758-054-R-J2-PDC line was cultured in 6B/Colon 1A media, which includes advanced DMEM/F-12 (Thermo Fisher Scientific, cat. 12634028), 10 mM HEPES (Thermo Fisher Scientific, cat. 15630080), 1X GlutaMAX supplement (Thermo Fisher Scientific, cat. 35050061), 0.1 mg/mL primocin (InvivoGen, cat. ant-pm-2), 10% defined fetal bovine serum, heat inactivated (HyClone Laboratories Inc., cat. SH30070.03HI), 1.25 mM N-Acetyl-L-cysteine (Sigma-Aldrich, cat. A9165), 10 mM nicotinamide (Sigma-Aldrich, cat. N0636), 1X B-27 supplement (Thermo Fisher Scientific, cat. 17504044), 1X N-2 supplement (Thermo Fisher Scientific, cat. 17502048), and 10 microM Y-27632 dihydrochloride (Tocris Bioscience, cat. 1254). The 876862-298-R-J1-PDC was cultured in 6E media, which includes all 6B/Colon 1A media components plus 50% L-WRN conditioned media (ATCC, cat. CRL-3276), 50 ng/mL recombinant human EGF recombinant protein (hEGF; Thermo Fisher Scientific, cat. PHG0311), 10 ng/mL recombinant human fibroblast growth factor 10 (hGFG-10; PeproTech, cat. 100-26), 1 ng/mL recombinant human fibroblast growth factor 2 (hFGF-2; PeproTech, cat. 100-18B), and 1 µM prostaglandin E2 (PGE2; Tocris, cat. 2296). The 227483-062-R1-J1-PDC line was cultured in Panc media, containing all 6E components except hFGF-2, with the addition of 500 nM SB-431542 (Selleckchem, cat. S1067) and 10 nM gastrin (Tocris, cat. 3006). […]
# 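Note: spheroids exposed to drugs for seven days before readout.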
# 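Throughout, for viability, T/C: 100% = DMSO vehicle control wells.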
smiles,measurement,setting,value
NC(=O)C(=Cn1cnc(-c2cc(C(F)(F)F)cc(C(F)(F)F)c2)n1)c1cncnc1 + CN1CCN(c2cc(C(=O)Nc3cc4cc(-c5cnn(C)c5)ccc4cn3)ccn2)CC1,IC50,"curve of first compound, second compound 0.0316 µM",70.6 nM
same,IC50,"curve of first compound, second compound 0.1 µM",52.3 nM
same,IC50,"curve of first compound, second compound 0.316 µM",< 9.49 nM
same,IC50,"curve of first compound, second compound 1 µM",< 9.49 nM
same,IC50,"curve of first compound, second compound 3.16 µM",< 9.49 nM
same,IC50,"curve of first compound, second compound 10 µM",< 9.49 nM
same,"viability, T/C","second compound 0.0316 µM, first compound 0.00949 µM",137%
same,"viability, T/C","second compound 0.0316 µM, first compound 0.03 µM",122%
same,"viability, T/C","second compound 0.0316 µM, first compound 0.0949 µM",25.1%
same,"viability, T/C","second compound 0.0316 µM, first compound 0.3 µM",5.66%
same,"viability, T/C","second compound 0.0316 µM, first compound 0.949 µM",6%
same,"viability, T/C","second compound 0.0316 µM, first compound 3 µM",1.88%
same,"viability, T/C","second compound 0.1 µM, first compound 0.00949 µM",82.6%
same,"viability, T/C","second compound 0.1 µM, first compound 0.03 µM",90.1%
same,"viability, T/C","second compound 0.1 µM, first compound 0.0949 µM",11.2%
same,"viability, T/C","second compound 0.1 µM, first compound 0.3 µM",2.07%
same,"viability, T/C","second compound 0.1 µM, first compound 0.949 µM",3.91%
same,"viability, T/C","second compound 0.1 µM, first compound 3 µM",0.25%
same,"viability, T/C","second compound 0.316 µM, first compound 0.00949 µM",2.6%
same,"viability, T/C","second compound 0.316 µM, first compound 0.03 µM",1.37%
same,"viability, T/C","second compound 0.316 µM, first compound 0.0949 µM",1.48%
same,"viability, T/C","second compound 0.316 µM, first compound 0.3 µM",0.21%
same,"viability, T/C","second compound 0.316 µM, first compound 0.949 µM",0.13%
same,"viability, T/C","second compound 0.316 µM, first compound 3 µM",0.05%
same,"viability, T/C","second compound 1 µM, first compound 0.00949 µM",0.15%
same,"viability, T/C","second compound 1 µM, first compound 0.03 µM",0.76%
same,"viability, T/C","second compound 1 µM, first compound 0.0949 µM",0.42%
same,"viability, T/C","second compound 1 µM, first compound 0.3 µM",0.21%
same,"viability, T/C","second compound 1 µM, first compound 0.949 µM",0.71%
same,"viability, T/C","second compound 1 µM, first compound 3 µM",0.05%
same,"viability, T/C","second compound 3.16 µM, first compound 0.00949 µM",0.27%
same,"viability, T/C","second compound 3.16 µM, first compound 0.03 µM",0.21%
same,"viability, T/C","second compound 3.16 µM, first compound 0.0949 µM",0.42%
same,"viability, T/C","second compound 3.16 µM, first compound 0.3 µM",0.13%
same,"viability, T/C","second compound 3.16 µM, first compound 0.949 µM",0.22%
same,"viability, T/C","second compound 3.16 µM, first compound 3 µM",0.09%
same,"viability, T/C","second compound 10 µM, first compound 0.00949 µM",0.14%
same,"viability, T/C","second compound 10 µM, first compound 0.03 µM",0.09%
same,"viability, T/C","second compound 10 µM, first compound 0.0949 µM",0.34%
same,"viability, T/C","second compound 10 µM, first compound 0.3 µM",0.23%
same,"viability, T/C","second compound 10 µM, first compound 0.949 µM",0.6%
same,"viability, T/C","second compound 10 µM, first compound 3 µM",0.2%
C=C(F)C(=O)N1CCN(c2nc(OCC3CCCN3C)nc3c2CCN(c2cccc4cccc(Cl)c24)C3)CC1CC#N (centres undefined),"viability, T/C",compound 0.0316 µM,94.2% and 121%
same,"viability, T/C",compound 0.1 µM,111% and 115%
same,"viability, T/C",compound 0.316 µM,93.3% and 113%
same,"viability, T/C",compound 1 µM,111% and 123%
same,"viability, T/C",compound 3.16 µM,11.1% and 26%
same,"viability, T/C",compound 10 µM,1.51% and 0.48%
same,IC50,curve of compound,1940 nM and 2340 nM
